Paper PMC12110735 (Diseases, 2025)
Entries after “also recorded” stand apart in the source; their conditions may differ. Read-outs that look alike come from different tables or passages of the source.

Assays:
[1] = test system: HCC70 basal triple-negative breast cancer (TNBC) cell line; assay: Cytotoxicity, resazurin assay, 96 h, HCC70; assay type: cell-based; details: for IC50: 96 h, read-out: HCC70 (IC50 and SD); for Selectivity Index (SI) HCC70: IC50 in MCF12A / IC50 in HCC70
Procedure: (§1) The cytotoxicity and IC50 values of the isolated compounds were evaluated in three cell lines, namely, the HCC70 basal triple-negative breast cancer (TNBC) cell line (ATCC: CRL-2315), the hormone receptor-positive breast cancer MCF-7 cell line (ATCC: HTB-22) and the non-tumorigenic breast epithelial cell line MCF12A (ATCC: CRL-10782) using the resazurin assay. The cells were seeded at a density of 5000 cells/well in a 96-well plate and allowed to attach overnight at 37 °C and 9% CO2. The cells were then treated with DMSO as vehicle control (0.2% vM), paclitaxel (Sigma-Aldrich, St. Louis, USA) as a positive control (0.32 to 200 nm) and a six-point range concentration (0.32 to 200 μM) of the isolated pure compounds and incubated for 96 h at 37 DC in a humidified 9% CO2 incubator. Resazurin ([…]) was added to the cells, and the cells were incubated for 2–4 h at 37 °C in 9% CO2. Fluorescence readings were obtained on a Spectramax spectrophotometer (excitation and emission wavelength set to 560 nm and 590 nm, respectively). The experiment was performed in triplicate, and the data was analyzed using GraphPad Prism Inc., (Version 4, USA) with a half-maximal inhibitory concentration (IC50 values) determined by non-linear regression. A selectivity index (SI) was determined for each compound to determine its therapeutic significance in cancerous cells. It was calculated as follows: Selectivity index (SI) = IC50 of compound in MCF12A/IC50 of compound in cancer line
(§2) SI function is a crucial metric for assessing a compound’s potential safety, with values below 1 indicating toxicity and those above 10 implying high selectivity for further investigation.

[2] = test system: hormone receptor-positive breast cancer MCF-7 cell line; assay: Cytotoxicity, resazurin assay, 96 h, MCF-7; assay type: cell-based; details: for IC50 / cytotoxic activity against MCF-7 (in words): MCF-7 cells; for IC50: 96 h, read-out: MCF-7 (IC50 and SD); for Selectivity Index (SI) MCF-7: IC50 in MCF12A / IC50 in MCF-7
Procedure: as §1, §2

[3] = test system: non-tumorigenic breast epithelial cell line MCF12A; assay: Cytotoxicity, resazurin assay, 96 h, MCF-12A; assay type: cell-based; details: MCF-12A cells; for IC50: 96 h, read-out: MCF-12A (IC50 and SD)
Procedure: as §1, §2

[4] = test system: NF-kappa B; details: cited from earlier work
[5] = test system: leukemic cell line (L1210); design: method as in PMID 12612427; details: cited from earlier work
[6] = Homo sapiens, HCC70, 96 h, HCC70 cells, resazurin, triplicate
[7] = Homo sapiens, MCF7, 96 h, resazurin, triplicate
[8] = Homo sapiens, MCF-12A, resazurin, triplicate
[9] = resazurin, triplicate, listed as 13R-Nepetaefolin (2)

## CC(=O)O[C@@H]1C[C@@H](C)[C@](O)(CCc2ccoc2)[C@]23CCC[C@](C)(C(=O)OC2)[C@H]13 [Compound 3, dubiin]
[1]; [6]
  IC50: 127900 ± 1230 nM
[1]; listed as dubiin (3)
  Selectivity Index (SI) HCC70: 1.564
[2]; [7]
  IC50: > 200000 nM
[2]
  cytotoxic activity against MCF-7 (in words): non-toxic
[3]; [8]
  IC50: > 200000 nM
[3]
  cytotoxic activity against MCF-12A (in words): non-toxic

## CC(=O)O[C@@H]1C[C@@]2(CO2)[C@]2(CC[C@@]3(C=COC3)O2)[C@]23CCC[C@](C)(C(=O)OC2)[C@H]13 [Compound 1, 13S-nepetaefolin]
[1]; [6]
  IC50: 24600 ± 1180 nM
[1]; listed as 13S-Nepetaefolin (1)
  Selectivity Index (SI) HCC70: 1.08
[1]; listed as 13S-nepetaefolin (1)
  Selectivity Index (SI) HCC70: 1.077
[2]; [7]
  IC50: > 200000 nM
[2]
  Selectivity Index (SI) MCF-7: <0.132
[2]; resazurin, triplicate, listed as 13S-Nepetaefolin (1)
  IC50: > 200000 nM
[3]; [8]
  IC50: 26600 ± 1320 nM

## CC(=O)O[C@@H]1C[C@@]2(CO2)[C@](O)(CCc2ccoc2)[C@]23CCC[C@](C)(C(=O)OC2)[C@H]13 [Compound 4, nepetaefuran]
[1]; [6]
  IC50: 73700 ± 1100 nM
[1]; listed as nepetaefuran (4)
  Selectivity Index (SI) HCC70: 2.715
[2]; [7]
  IC50: > 200000 nM
[2]
  cytotoxic activity against MCF-7 (in words): no cytotoxic activity
[3]; [8]
  IC50: > 200000 nM
[3]
  cytotoxic activity against MCF-12A (in words): no cytotoxic activity
[4]
  anti-inflammatory activity, LPS pathway / NF-kappa B transactivation (in words): suppression of the transactivation of NF-kappa B

## CC(=O)O[C@@H]1C[C@@]2(CO2)[C@]2(CC[C@]3(C=COC3)O2)[C@]23CCC[C@](C)(C(=O)OC2)[C@H]13 [Compound 2, nepetaefolin]
[1]; HCC70 cells
  cytotoxic activity against HCC70 (in words): no activity; also recorded: no such effects
[1]; HCC70 cells, resazurin, triplicate, listed as 13R-Nepetaefolin (2)
  IC50: > 200000 nM
[1]; [6]
  IC50: > 200000 nM
[2]; [7]
  IC50: > 200000 nM
[2]; [9]
  IC50: > 200000 nM
[3]; [8]
  IC50: > 200000 nM
[3]; [9]
  IC50: > 200000 nM

## CC(=O)O[C@H]1C(=O)[C@@]2(C)[C@H]([C@H](OC(=O)c3ccccc3)[C@]3(O)C[C@H](OC(=O)[C@H](O)[C@@H](NC(=O)c4ccccc4)c4ccccc4)C(C)=C1C3(C)C)[C@]1(OC(C)=O)CO[C@@H]1C[C@@H]2O [Paclitaxel, paclitaxel, reference compound]
[1]; Homo sapiens, HCC70, 96 h, HCC70 cells, positive control in nM
  IC50: 3.92 ± 1.03 nM
[1]
  Selectivity Index (SI) HCC70: 4.12
[2]; Homo sapiens, MCF7, 96 h, positive control in nM
  IC50: 2.41 ± 1.11 nM
[2]
  Selectivity Index (SI) MCF-7: 6.71
[3]; Homo sapiens, MCF-12A, positive control in nM
  IC50: 16.2 ± 1.08 nM

## C[C@@]12CCC[C@]3(C)C(=O)O[C@H](C[C@@]4(CO4)[C@]1(O)CCc1ccoc1)[C@H]23 [Compound 5, leonotin]
[5]
  cytotoxic activity against leukemic cell lines (in words): cytotoxic activity

## leonotinin [Compound 6]
[1]; HCC70 cells, resazurin, triplicate
  IC50: 94900 ± 1100 nM
[1]; listed as leonotinin (6)
  Selectivity Index (SI) HCC70: 2.108
[2]
  cytotoxic activity against MCF-7 (in words): no cytotoxic activity
[2]; resazurin, triplicate
  IC50: > 200000 nM
[3]
  cytotoxic activity against MCF-12A (in words): no cytotoxic activity
[3]; resazurin, triplicate
  IC50: > 200000 nM
[5]
  cytotoxic activity against leukemic cell lines (in words): cytotoxic activity
[4]
  anti-inflammatory activity, LPS pathway / NF-kappa B transactivation (in words): suppression of the transactivation of NF-kappa B
